# According to patent publication US6177253A, “Screening methods for the identification of anti-HIV compounds employing a cyclosporine-specific monoclonal antibody that cross-reacts with HIV-1 p24” (priority 1998, dated 2001):
# pIC50: −log10 of the molar value. “Also recorded” adds a separate entry of the source.
# Tests used:
# R575 = assay: Inhibition RIA of [3H]CsA binding to rabbit anti-cyclosporine antibodies R575; conditions: for affinity group for the rabbit antibodies: inhibition RIA, in words; for pIC50: read-out: IC50 = Concentration for 50% inhibition, inhibition of [3H] dihydro CsA binding to rabbit antibody R575
# Protocol: Serum antibodies were detected by a modification of the published radioimmunoassay (5, 12). […] Binding by diluted preimmune serum was used as a control. Free and bound ligand were separated with charcoal supplied by Sandoz according to their procedure. […] The cyclosporin derivatives were dissolved in 100% ethanol at a concentration of 5.0 mg/ml, stored at -20° C., and diluted to final concentrations of 0.27 nM to 2.7 μM in Sandoz buffer B for the inhibition experiments.
# H4 1.3 = assay: ELISA inhibition by singly modified Cs-derivatives, McAb H4 1.3; type: binding, BALB/c mice; conditions: group II; D-Lys^8 -Cs-BSA coating
# Protocol: (§1) A second ELISA Procedure used conjugates of D-Lys^8 -Cs-BSA and Thr^2 -Cs-BSA for coating (Queeniaux et al., 1987b). An indirect detection system consisting of rabbit anti-mouse Ig followed by alkaline phosphates-conjugated goat anti-rabbit IgG was performed as previously described (Queenlaux et al., 1987b).
# (§2) The binding of the 22 McAbs to these two Cs-BSA conjugates was also found to correlate well with their fine specificity patterns, as characterized with a set of 28-36 Cs derivatives. Typical ELISA curves showing McAb binding either to D-Lys^8 -Cs-BSA (panel A) or to Thr^2 -Ca-BSA (panel B) and inhibited by Cs or Cs derivatives are shown in FIGS. 8A-8B, D-Lys^8 -Cs-BSA was subsequently used for coating in the inhibition experiments, except for those McAbs binding selectively to Thr^2 -Cs-BSA (see Table 4 and FIGS. 7A-7C). An example of the binding of 26 Cs derivatives by McAbs belonging to each of the five specificity groups mentioned above is reported in Table 5. The results are expressed as the difference of IC50 (in log10) between the Cs derivatives and Cs. All Cs-derivatives used in this study were selected for having a conserved peptide ring conformation compared with CsA (as determined in NMR or X-ray diffraction).
# B11 1.4 = assay: ELISA inhibition by singly modified Cs-derivatives, McAb B11 1.4; type: binding, BALB/c mice; conditions: group IV; D-Lys^8 -Cs-BSA coating
# Protocol: as §1, §2
# G7 1.1 = assay: ELISA inhibition by singly modified Cs-derivatives, McAb G7 1.1; type: binding, BALB/c mice; conditions: group I; McAb binds selectively to Thr^2 -Cs-BSA coating
# Protocol: as §1, §2
# C4 2.2 = assay: ELISA inhibition by singly modified Cs-derivatives, McAb C4 2.2; type: binding, BALB/c mice; conditions: group V; McAb binds selectively to Thr^2 -Cs-BSA coating
# Protocol: as §1, §2
# H6 1.5 = assay: ELISA inhibition by singly modified Cs-derivatives, McAb H6 1.5; type: binding, BALB/c mice; conditions: group III; D-Lys^8 -Cs-BSA coating
# Protocol: as §1, §2
affinity group for the rabbit antibodies (R575),pIC50 (R575),SMILES,"log10 difference in the concentrations of Cs-derivatives and unmodified Cs required to achieve 50% inhibition in ELISA, McAb H4 1.3 (H4 1.3)","log10 difference in the concentrations of Cs-derivatives and unmodified Cs required to achieve 50% inhibition in ELISA, McAb B11 1.4 (B11 1.4)","log10 difference in the concentrations of Cs-derivatives and unmodified Cs required to achieve 50% inhibition in ELISA, McAb G7 1.1 (G7 1.1)","log10 difference in the concentrations of Cs-derivatives and unmodified Cs required to achieve 50% inhibition in ELISA, McAb C4 2.2 (C4 2.2)","log10 difference in the concentrations of Cs-derivatives and unmodified Cs required to achieve 50% inhibition in ELISA, McAb H6 1.5 (H6 1.5)"
high affinity; also recorded: bind best,8.15,C/C=C/C[C@@H](C)[C@@H](O)[C@H]1C(=O)N[C@@H](CC)C(=O)N(C)CC(=O)N(C)[C@@H](CC(C)C)C(=O)N[C@@H](C(C)C)C(=O)N(C)[C@@H](CC(C)C)C(=O)N[C@@H](C)C(=O)N[C@H](C)C(=O)N(C)[C@@H](CC(C)C)C(=O)N(C)[C@@H](CC(C)C)C(=O)N(C)[C@@H]([C@@H](C)CC)C(=O)N1C [compound 032],,,,,
Moderate affinities,7.74,C/C=C/C[C@@H](C)[C@@H](O)[C@H]1C(=O)N[C@@H](CC)C(=O)N(C)CC(=O)N(C)[C@@H](CC(C)C)C(=O)N[C@@H](C(C)C)C(=O)N(C)[C@H](C)C(=O)N[C@@H](C)C(=O)N[C@H](C)C(=O)N(C)[C@@H](CC(C)C)C(=O)N(C)[C@@H](CC(C)C)C(=O)N(C)[C@@H](C(C)C)C(=O)N1C [compound 039],,,,,
,,C/C=C/C[C@@H](C)[C@@H](O)[C@H]1C(=O)N[C@@H](CC)C(=O)N(C)CC(=O)N(C)[C@@H](CC(C)C)C(=O)N[C@@H](C(C)C)C(=O)N(C)[C@@H](CC(C)C)C(=O)N[C@@H](C)C(=O)N[C@H](C)C(=O)N(C)[C@@H](Cc2ccccc2)C(=O)N(C)[C@@H](CC(C)C)C(=O)N(C)[C@@H](C(C)C)C(=O)N1C [MeLeu^9 MePhe],0.0 log10,1.2 log10,0.3 log10,1.8 log10,0.1 log10
,,"C/C=C/C[C@@H](C)[C@@H](O)[C@H]1C(=O)N[C@@H](CCC)C(=O)N(C)CC(=O)N(C)[C@@H](CC(C)C)C(=O)N[C@@H](CCC)C(=O)N(C)[C@@H](CC(C)C)C(=O)N[C@@H](C)C(=O)N[C@H](C)C(=O)N(C)[C@@H](CC(C)C)C(=O)N(C)[C@@H](CC(C)C)C(=O)N(C)[C@@H](C(C)C)C(=O)N1C [Val^5 NVa^2, Nva^5]",1.2 log10,0.2 log10,0.5 log10,0.1 log10,0.2 log10
,,C/C=C/C[C@@H](C)[C@@H](O)[C@H]1C(=O)N[C@@H](CO)C(=O)N(C)CC(=O)N(C)[C@@H](CC(C)C)C(=O)N[C@@H](C(C)C)C(=O)N(C)[C@@H](CC(C)C)C(=O)N[C@@H](C)C(=O)N[C@H](C)C(=O)N(C)[C@@H](CC(C)C)C(=O)N(C)[C@@H](CC(C)C)C(=O)N(C)[C@@H](C(C)C)C(=O)N1C [Abu^2 Ser],0.9 log10,0.0 log10,< 0.0 log10,0.2 log10,0.6 log10
,,C/C=C/C[C@@H](C)[C@@H](O)[C@H]1C(=O)N[C@@H](CC)C(=O)N(C)CC(=O)N(C)[C@@H](CC(C)C)C(=O)N[C@@H](C(C)C)C(=O)N(C)[C@@H](CC(C)C)C(=O)N[C@@H](C)C(=O)N[C@H](C)C(=O)N(C)[C@@H](CC(C)C)C(=O)N(C)[C@@H](CC(C)C)C(=O)N(C)[C@@H]([C@@H](C)CC)C(=O)N1C [MeVal^11 MeIle],0.0 log10,0.2 log10,0.4 log10,0.3 log10,0.0 log10
,,C/C=C/C[C@@H](C)[C@@H](O)[C@H]1C(=O)N[C@@H](CC)C(=O)N(C)CC(=O)N(C)[C@@H](CC(C)C)C(=O)N[C@@H](C(C)C)C(=O)N(C)[C@@H](Cc2ccccc2)C(=O)N[C@@H](C)C(=O)N[C@H](C)C(=O)N(C)[C@@H](CC(C)C)C(=O)N(C)[C@@H](CC(C)C)C(=O)N(C)[C@@H](C(C)C)C(=O)N1C [MeLeu^6 MePhe],1.2 log10,0.0 log10,0.1 log10,1.3 log10,1.7 log10
,,C/C=C/C[C@@H](C)[C@@H](O)[C@H]1C(=O)N[C@@H](CC)C(=O)N(C)CC(=O)N(C)[C@@H](CC(C)C)C(=O)N[C@@H](C(C)C)C(=O)N(C)[C@@H](CC(C)C)C(=O)N[C@@H](C)C(=O)N[C@H](C)C(=O)N(C)[C@@H](CC(C)C)C(=O)N(C)[C@@H](Cc2ccccc2)C(=O)N(C)[C@@H](C(C)C)C(=O)N1C [MeAla^10 MePhe],0.5 log10,1.6 log10,< 0.0 log10,1.3 log10,0.2 log10
,,C/C=C/C[C@@H](C)[C@@H](O)[C@H]1C(=O)N[C@@H](CC)C(=O)N(C)CC(=O)N(C)[C@@H](CC(C)C)C(=O)N[C@@H](C(C)C)C(=O)N(C)[C@@H](CC(C)C)C(=O)N[C@@H](C)C(=O)N[C@H](CCCCNC(=O)OC(C)(C)C)C(=O)N(C)[C@@H](CC(C)C)C(=O)N(C)[C@@H](CC(C)C)C(=O)N(C)[C@@H](C(C)C)C(=O)N1C [D-Ala^8 Boc-D-Lys],0.6 log10,0.3 log10,2.0 log10,1.2 log10,0.0 log10
,,C/C=C/C[C@@H](C)[C@@H](O)[C@H]1C(=O)N[C@@H](CC)C(=O)N(C)CC(=O)N(C)[C@@H](CC(C)C)C(=O)N[C@@H](C(C)C)C(=O)N(C)[C@@H](CC(C)C)C(=O)N[C@@H](C)C(=O)N[C@H](C)C(=O)N(C)[C@@H](C)C(=O)N(C)[C@@H](CC(C)C)C(=O)N(C)[C@@H](C(C)C)C(=O)N1C [MeLeu^9 MeAla],< 0.0 log10,1.7 log10,1.4 log10,1.9 log10,0.0 log10
,,C/C=C/C[C@@H](C)[C@@H](O)[C@H]1C(=O)N[C@@H](CC)C(=O)N(C)CC(=O)N(C)[C@@H](CC(C)C)C(=O)N[C@@H](C(C)C)C(=O)N(C)[C@@H](CC(C)C)C(=O)N[C@@H](C)C(=O)N[C@H](C)C(=O)N(C)[C@@H](CC(C)C)C(=O)N(C)[C@@H](C)C(=O)N(C)[C@@H](C(C)C)C(=O)N1C [MeAla^10 MeAla],0.4 log10,0.1 log10,< 0.0 log10,0.8 log10,0.0 log10
